Results reported in US20210046071A1, “TETRACYCLIC COMPOUNDS AND THEIR SALTS, COMPOSITIONS, AND METHODS FOR THEIR USE” (Senhwa Biosciences, Inc., priority 2019, published 2021).

Experiments:
[1] = tested on: EOL-1; assay: Alamar Blue cell viability assay, EOL-1; format: cell-based; conditions: Homo sapiens, EOL1; EOL-1, Leukemia
Description: (§1) The effect of Compound I on cell viability was assessed by Alamar Blue assay of metabolic activity in various cancer cell lines.

[2] = tested on: MOLT-3; assay: Alamar Blue cell viability assay, MOLT-3; format: cell-based; conditions: Homo sapiens; MOLT-3, Leukemia
Description: as §1

[3] = tested on: MV 4; 11; assay: Alamar Blue cell viability assay, MV 4; 11; format: cell-based; conditions: Homo sapiens, MV4-11, 11, Leukemia
Description: as §1

[4] = tested on: SEM cells; assay: Alamar Blue cell viability assay, SEM; format: cell-based; conditions: Leukemia
Description: as §1

[5] = tested on: A7; assay: Alamar Blue cell viability assay, A7; format: cell-based; conditions: A7, Melanoma
Description: as §1

[6] = tested on: NCI-H460; assay: Alamar Blue cell viability assay, NCI-H460; format: cell-based; conditions: Homo sapiens; NCI-H460, Lung
Description: as §1

[7] = tested on: NCI-H1299; assay: Alamar Blue cell viability assay, NCI-H1299; format: cell-based; conditions: Homo sapiens; NCI-H1299, Lung
Description: as §1

[8] = tested on: Ramos; assay: Alamar Blue cell viability assay, Ramos; format: cell-based; conditions: Homo sapiens, Lymphoma
Description: as §1

[9] = tested on: RPMI-8226; assay: Alamar Blue cell viability assay, RPMI-8226; format: cell-based; conditions: Homo sapiens; RPMI-8226, Myeloma
Description: as §1

[10] = tested on: NCI-H520; assay: Alamar Blue cell viability assay, NCI-H520; format: cell-based; conditions: Homo sapiens; NCI-H520, Lung
Description: as §1

[11] = tested on: MIA PaCa-2; assay: Alamar Blue cell viability assay, MIA PaCa-2; format: cell-based; conditions: Homo sapiens; MIA PaCa-2, Pancreatic
Description: as §1

[12] = tested on: HL60; assay: Alamar Blue cell viability assay, HL60; format: cell-based; conditions: Homo sapiens, HL-60; HL60, Leukemia
Description: as §1

[13] = tested on: MDA-MB-231; assay: Alamar Blue cell viability assay, MDA-MB-231; format: cell-based; conditions: Homo sapiens; MDA-MB-231, Breast
Description: as §1

[14] = tested on: BT-474; assay: Alamar Blue cell viability assay, BT-474; format: cell-based; conditions: Homo sapiens; BT-474, Breast
Description: as §1

[15] = tested on: COLO-205; assay: Alamar Blue cell viability assay, COLO-205; format: cell-based; conditions: Homo sapiens; COLO-205, Colon
Description: as §1

[16] = tested on: Hs 605.T; assay: Alamar Blue cell viability assay, Hs 605.T; format: cell-based; conditions: Breast
Description: as §1

[17] = tested on: MDA-MB-453; assay: Alamar Blue cell viability assay, MDA-MB-453; format: cell-based; conditions: Homo sapiens; MDA-MB-453, Breast
Description: as §1

[18] = tested on: NK92mi; assay: Alamar Blue cell viability assay, NK92mi; format: cell-based; conditions: Lymphoma
Description: as §1

[19] = tested on: PC-3; assay: Alamar Blue cell viability assay, PC-3; format: cell-based; conditions: Homo sapiens; PC-3, Prostate
Description: as §1

[20] = tested on: MDA-MB-361; assay: Alamar Blue cell viability assay, MDA-MB-361; format: cell-based; conditions: Homo sapiens; MDA-MB-361, Breast
Description: as §1

[21] = tested on: A549; assay: Alamar Blue cell viability assay, A549; format: cell-based; conditions: Homo sapiens; A549, Lung
Description: as §1

[22] = tested on: Saos-2; assay: Alamar Blue cell viability assay, Saos-2; format: cell-based; conditions: Homo sapiens; Saos-2, Osteosarcoma
Description: as §1

[23] = tested on: PANC-1; assay: Alamar Blue cell viability assay, PANC-1; format: cell-based; conditions: Homo sapiens; PANC-1, Pancreatic
Description: as §1

[24] = tested on: LNCaP; assay: Alamar Blue cell viability assay, LNCaP; format: cell-based; conditions: Homo sapiens, Prostate
Description: as §1

[25] = tested on: CCD-1058Sk; assay: Alamar Blue cell viability assay, CCD-1058Sk; format: cell-based; conditions: Normal
Description: as §1

[26] = tested on: CCD-1094Sk; assay: Alamar Blue cell viability assay, CCD-1094Sk; format: cell-based; conditions: Normal
Description: as §1

[27] = tested on: CCD-1068Sk; assay: Alamar Blue cell viability assay, CCD-1068Sk; format: cell-based; conditions: Normal
Description: as §1

[28] = tested on: CCD-1096Sk; assay: Alamar Blue cell viability assay, CCD-1096Sk; format: cell-based; conditions: Normal
Description: as §1

[29] = Dose escalation study in patients, toxicity and adverse events; format: in vivo, human
Description: Pharmacokinetic studies and dose escalation studies were conducted in adult patients with metastatic, recurrent, locally, advanced, or unresectable solid malignancy (patients with histologically and/or cytologically confirmed solid malignancy), who received prior anti-cancer treatment(s) until disease progression, at 10 different dose levels of Compound I. Groups 1-7 were administered intravenously on days 1 and 8 of a 4-week cycle at 50, 100, 150, 200, 250, 325, and 475 mg/m^2 (lyophilized formulation), respectively. Groups 8-10 were administered intravenously on days 1,8, and 15 of a 4-week cycle at 325, 475, and 650 mg/m^2 (lyophilized formulation), respectively. Each patient received each dose over 1 hour by IV infusion on days described above.

[30] = tested on: BRCA2 knockout tumor cells; assay: BRCA2 knockout tumor xenograft model; format: in vivo; conditions: compared with isogenic wild type control cells
[31] = tested on: normal cells; assay: Alamar Blue cell viability assay, normal cells; format: cell-based; conditions: compared with cancer cell lines
Description: as §1

Cc1cnc(CNC(=O)c2c(=O)c3ccc(N4CCCN(C)CC4)nc3n3c2sc2ccccc23)cn1 [Compound I, 2-(4-Methyl-[1,4]diazepan-1-yl)-5-oxo-5H-7-thia-1,11b-diaza-benzo[c]fluorene-6-carboxylic acid (5-methyl-pyrazin-2-ylmethyl)-amide]
EC50 [1]: 3 nM
EC50 [2]: 6 nM
EC50 [3]: 12 nM
EC50 [4]: 18 nM
EC50 [5]: 23 nM
EC50 [6]: 38 nM
EC50 [7]: 55 nM
EC50 [8]: 66 nM
EC50 [9]: 68 nM
EC50 [10]: 70 nM
EC50 [11]: 74 nM
EC50 [12]: 83 nM
EC50 [13]: 83 nM
EC50 [14]: 86 nM
EC50 [15]: 96 nM
EC50 [16]: 116 nM
EC50 [17]: 140 nM
EC50 [18]: 165 nM
EC50 [19]: 1100 nM
EC50 [20]: 2100 nM
EC50 [21]: 4900 nM
EC50 [22]: 5000 nM
EC50 [23]: 5000 nM
EC50 [24]: 5500 nM
EC50 [25]: 4710 nM
EC50 [26]: 4810 nM
EC50 [27]: 5070 nM
EC50 [28]: 5260 nM
Serious adverse events (SAEs) considered related to Compound I ([29]; Groups 1-10): Three
Treatment-related AE: hand-foot syndrome ([29]; Groups 1-10): 23%
Treatment-related AE: headache ([29]; Groups 1-10): 10%
Treatment-related AE: mucositis ([29]; Groups 1-10): 15%
Treatment-related AE: nausea ([29]; Groups 1-10): 44%
Treatment-related AE: photosensitivity of the eyes ([29]; Groups 1-10): 21%
Treatment-related AE: photosensitivity of the skin ([29]; Groups 1-10): 59%
Treatment-related AE: rash ([29]; Groups 1-10): 10%
Dose level toxicity (DLT) ([29]; Groups 1-10, 50 to 650 mg/m^2 IV): No dose level toxicity (DLT) were observed
Treatment-related non-DLT grade 3 photosensitivity events ([29]; in Groups 1, 5, and 8-10, reversible): 5
Activity in BRCA2 knockout tumor cells in a xenograft model [30]: wide therapeutic index of activity
Activity in normal cells [31]: significantly less active
